The subject of data set [1] is MRC-5 (human embryonic lung fibroblast cell line). Nature of the data set: MTT cytotoxicity assay, MRC-5 cells. In kind it is cell-based. The settings on record: MRC5, 72 h exposure. As to the method:
(§1) AB1 (mouse malignant mesothelioma cell line) and JU77 (human mesothelioma cell line) were obtained from Cell Bank Australia; MRC-5 (human embryonic lung fibroblast cell line) was obtained from ATCC. […] Cells were grown in tissue culture flasks (75 cm^2 and 25 cm^2, SPL Life Sciences, Pocheon, South Korea). […] The cytotoxicity of compounds was determined using the MTT colorimetric test. Cells were harvested from culture flasks by trypsinization and seeded into Cellstar 96-well microculture plates at a seeding density of 6000 cells per well (6 × 10^4 cells per mL). After the cells were allowed to resume exponential growth for 24 h, they were exposed to drugs at different concentrations in media for 72 h. The tested compounds were diluted in the complete medium at the desired concentrations added to each well (100 μL) and serially diluted to other wells. After 72 h of exposure, the medium was replaced with MTT (5 mg mL^−1, 100 μL per well) and incubated for an additional 50 min. Subsequently, the medium was aspirated, and the purple formazan crystals formed in viable cells were dissolved in DMSO (100 μL per well). […] The evaluation was based on means from at least three independent experiments, each comprising three replicates per concentration level.
A general note: Tetrazolium dyes change colour on reduction, which living cells bring about.

The test system of data set [2] is AB1 and JU77 mesothelioma cell lines. Description: cells. Conditions: MPM; range over AB1 and JU77, 72 h MTT; read-out: IC50 values in both cell lines. In kind it is cell-based, mouse and human. The protocol: as §1
For data set [3], the system named is JU77 (human mesothelioma cell line). Description: cells. The data set is classed as cell-based. As to the method:
as §1

Data set [4] has as its system AB1 (mouse malignant mesothelioma cell line). Description: MTT cytotoxicity assay, AB1 cells. Conditions: 72 h exposure. In kind it is cell-based. As to the method:
as §1

Data set [5] in a line: NO release assay (Griess assay, phosphate buffer with L-cysteine). For orientation: The Griess reaction detects nitrite, a stable product of nitric oxide.
Data set [6] deals with AB1 (mouse malignant mesothelioma cell line). Set-up: method as in doi:10.1039/D4NJ02047B. Conditions: MTT assay, 72 h exposure; ref [33]; cited from earlier work.
In data set [7] the test system is MRC-5 (human embryonic lung fibroblast cell line). Also on record: method as in doi:10.1039/D4NJ02047B. The settings on record: MTT assay, 72 h exposure; ref [33]; cited from earlier work.
Data set [8] has as its system JU77 (human mesothelioma cell line). Also on record: method as in doi:10.1039/D4NJ02047B. The settings on record: ref [33], cited from earlier work.

In general, IC50 refers to the concentration that inhibits the measured activity by half.

Like-named read-outs stand apart in the source and are kept apart here.

With `N#Cc1c(-c2noc(-c3ccccc3[N+](=O)[O-])n2)no[n+]1[O-]` [Compound 2d, 3-Cyano-4-(5-(2-nitrophenyl)-1,2,4-oxadiazolyl)furoxan], the IC50 in data set [1] was 2.2 ± 0.2 µM; in data set [2] it was 870 to 1800 nM; in data set [3] (Homo sapiens, MTT assay, 72 h exposure) it was 0.87 ± 0.07 µM; in data set [4], 1.8 ± 0.2 µM. The “SFJU77 (selectivity factor)” value in data set [3] (IC50(MRC-5)/IC50(JU77)) amounted to 2.5. Besides, the “times higher cytotoxicity in human MPM cells compared to human lung fibroblasts” value in data set [3] (human, 72 h) is recorded as 2.4-3.6 times. In addition, the “NO Released (%) 1 h” value in data set [5] (% NO2− (μmol/μmol) relative to initial concentration (100 μM), L-cysteine, phosphate buffer pH 7.4, 37 °C, 1 h) is on record as 69 ± 1%. The “NO Released (%) 24 h” value in data set [5] (% NO2− (μmol/μmol) relative to initial concentration (100 μM), L-cysteine, phosphate buffer pH 7.4, 24 h) is recorded as 86 ± 3%. Besides, the “NO Released (%) 48 h” value in data set [5] (% NO2− (μmol/μmol) relative to initial concentration (100 μM), L-cysteine, phosphate buffer pH 7.4, 48 h) is 89 ± 3%. Further, in data set [5] (ratio of NO released at 24 h to 1 h), the “Fold Change 24 h/1 h” value was 1.2. Besides, in data set [5] (ratio of NO released at 48 h to 1 h), the “Fold Change 48 h/1 h” value was found to be 1.3. Further, in data set [5] (ratio of NO released at 48 h to 24 h), the “Fold Change 48 h/24 h” value turned out to be 1.0.
In the case of `N.N.[Cl][Pt][Cl]` [Cisplatin, cisplatin], the IC50 is 5.8 ± 1 µM in data set [6]; 3.1 ± 1.2 µM in data set [7]; 4.2 ± 0.5 µM in data set [8] (MTT assay, 72 h exposure). Also, the “SFJU77 (selectivity factor)” value in data set [8] (IC50(MRC-5)/IC50(JU77)) is on record as 0.7.
